Data published in US20260061000A1, “COMPOSITIONS AND METHODS FOR THE TREATMENT OF CARDIAC ARRHYTHMIAS, INCLUDING ATRIAL FIBRILLATION” (Lankenau Institute for Medical Research, priority 2022, published 2026).
“And” between values parts separate entries of the source, which are not always exact repeats. Equal entries are not always repeated. “Also recorded” adds a separate entry of the source.

Assays:
[1] = tested on: acetylcholine-mediated AF; test: AF cardioversion in canine acetylcholine-mediated AF model (isolated coronary-perfused right atrial preparations); details: for AF cardioversion (atria cardioverted / tested): flecainide 1.5 μM
Protocol: This investigation conforms with the Guide for Care and Use of Laboratory Animals. Hearts from purpose-bred adult male Beagle dogs (10-16 kg, 10-19 months old) were obtained from Envigo (Denver, PA). Dogs were sedated with ketamine (10 mg/kg, intramuscularly [IM]) and xylazine (2 mg/kg, IM). Prior to euthanasia with Euthasol solution (pentobarbital sodium and phenytoin sodium; 0.22 ml/kg, intravenously [IV]), heparin (human pharmaceutical grade, 1,000 U/kg, IV) was administered. The heart was then isolated via a left thoracotomy. Retrograde aortic perfusion of the hearts with ice-cold cardioplegic solution (modified Krebs-Henseleit solution [K-H]; 16 mM KCl) was immediately performed to clear the coronary vasculature of blood. The hearts were then placed in a sealed container containing ice-cold cardioplegic solution and transported to our institution via a private courier in an insulated package surrounded by icepacks.
(§1) Experiments were performed using isolated arterially-perfused canine preparations perfused with Tyrode's solution containing (in mM): NaCl 129, KCl 4, NaH2PO4 0.9, NaHCO3 20, CaCl2 1.8, MgSO4 0.5, glucose 5.5, insulin lunit/liter, bubelled with 95% O2 and 5% CO2. pH=7.4. Preparations consisting of the right atrium with a rim of right ventricle (1.0-2.0 cm) were isolated from the canine hearts (FIG. 1). The ostium of the right coronary artery was cannulated with polyethylene tubing, and the preparations were perfused with cold Tyrode's solution (8°-12° C.) containing 8.5 [K^+]0. With continuous coronary perfusion, all ventricular branches of the right coronary artery were immediately clamped with metal clips (1.5×10 mm; Kent Scientific Corp., Torrington, CT). The total time from excision of the heart to cannulation and perfusion of the artery was 4 minutes. […] coronary branches were ligated using silk thread. The preparations were placed in a temperature-controlled bath (8×6×4 cm) and perfused at a rate of 10-15 mL/min using Tyrode's solution. The temperature was maintained at 37° C.±0.5° C. (PolyStat; Cole Parmer Instrument, IL). The perfusate was delivered to the artery by a roller pump (MasterFlex L/S, Cole Parmer Instrument). An air trap was used to avoid bubbles in the perfusion line.
A well-established acetylcholine (ACh)-mediated non-self-terminating (persistent) AF experimental model was used in the current study.^4 AF was induced by either delivering a single premature stimulus or by rapid pacing (CLs=40-80 ms, for 2-5 seconds). The efficacy and time course for flecainide to cardiovert AF (induced at 4 mM potassium) was studied at 4 mM (baseline) and at 5, 6, and 8 mM of potassium concentration ([K^+]0). Sustained AF (here defined as lasting >1 hour) was induced in 100% experiments in the presence of 4 mM [K^+]. 5-7 minutes after non-self-terminating AF was first introduced at 4 mM [K^+]0, flecainide was added to the Tyrode's perfusate containing either 4 mM [K^+]0 or with a concomitant increase in potassium concentration (to 5, 6, or 8 mM).
Additionally, the capability of elevated potassium (5, 6, and 8 mM) alone to terminate AF was investigated. In these experiments, sustained AF was first induced at 4 mM [K^+]0 and 5-7 minutes later potassium concentrations were increased (to 5, 6, or 8 mM). To mimic hypokalemia, AF termination efficacy of flecainide was tested at 3 mM [K^+]0. If AF was not terminated by the tested conditions in 45 minutes, the AF was considered as “non-terminating”. In the experiments in which AF was cardioverted by tested conditions tested, electrical re-induction of AF was attempted within 1-5 minutes after AF termination (≥5 attempts in ≥2 atrial locations).
Overall, 41 right atrioventricular preparations isolated from 41 canine hearts were used in the study, with 46 experiments investigating AF cardioversion and 11 experiments investigating electrophysiological parameters in atria and ventricles. […]

atria = test: Electrophysiological parameters (APD, ERP, PRR, DTE) in atria of isolated arterially-perfused canine preparations
Protocol: as §1
(§2) Transmembrane action potential (AP) recordings (sampling rate 41 kHz) were obtained from the right atrium and ventricle using floating glass microelectrodes (10-25 MΩ DC resistance). Glass microelectrodes were connected to a high-input impedance intracellular amplifier (Electro-705; World Precision Instruments, Sarasota, FL). A pseudo-electrocardiogram (ECG) was recorded using two electrodes consisting of Ag/AgCl half cells placed in the Tyrode's solution bathing the preparation, 1.0 to 1.2 cm from opposite ends of the atrial coronary-perfused preparations (FIG. 1). The signals were amplified, digitized, and analyzed (Cambridge Electronic Design, Cambridge, England). Effective refractory period (ERP) was measured by delivering premature stimuli after every 10th basic beat at a pacing cycle length (CL) of 500 ms. The diastolic threshold of excitation (DTE) was determined by increasing stimulus intensity in 0.01 mA steps starting from 0.1 mA, until a steady 1:1 activation was achieved. Post-repolarization refractoriness (PRR) was recognized when ERP exceeded an action potential duration at 90% repolarization (APD90) in the ventricle and action potential duration at 70% repolarization (APD70) in atria. Ventricular ERP coincides with APD90, whereas atrial ERP generally coincides with APD70.^4 The electrophysiological measurements were performed following at least 20 min of perfusion with flecainide and 5 min with elevated potassium concentrations. The electrophysiological measurements were obtained at a CL of 500 ms.

[2] = tested on: acetylcholine-mediated AF; test: Electrical re-induction of AF after AF termination in isolated canine right atrial preparations
Protocol: A well-established acetylcholine (ACh)-mediated non-self-terminating (persistent) AF experimental model was used in the current study.^4 AF was induced by either delivering a single premature stimulus or by rapid pacing (CLs=40-80 ms, for 2-5 seconds). The efficacy and time course for flecainide to cardiovert AF (induced at 4 mM potassium) was studied at 4 mM (baseline) and at 5, 6, and 8 mM of potassium concentration ([K^+]0). Sustained AF (here defined as lasting >1 hour) was induced in 100% experiments in the presence of 4 mM [K^+]. 5-7 minutes after non-self-terminating AF was first introduced at 4 mM [K^+]0, flecainide was added to the Tyrode's perfusate containing either 4 mM [K^+]0 or with a concomitant increase in potassium concentration (to 5, 6, or 8 mM). Additionally, the capability of elevated potassium (5, 6, and 8 mM) alone to terminate AF was investigated. In these experiments, sustained AF was first induced at 4 mM [K^+]0 and 5-7 minutes later potassium concentrations were increased (to 5, 6, or 8 mM). To mimic hypokalemia, AF termination efficacy of flecainide was tested at 3 mM [K^+]0. If AF was not terminated by the tested conditions in 45 minutes, the AF was considered as “non-terminating”. In the experiments in which AF was cardioverted by tested conditions tested, electrical re-induction of AF was attempted within 1-5 minutes after AF termination (≥5 attempts in ≥2 atrial locations).

ventricles = test: Electrophysiological parameters (APD, ERP, DTE) in ventricles of isolated arterially-perfused canine preparations; details: CL 500 ms
Protocol: as §1, §2

ACh-mediated AF = details: elevation of [K+]0 from 4 to 6-8 mM; isolated pig atria; cited from earlier work
recent-onset AF = details: flecainide via oral inhalation; patients with recent-onset AF; cited from earlier work
[3] = [K+]0 from 4 to 6 mM, CL 500 ms
[4] = flecainide 1.5 μM added at [K+]0 6 mM, CL 500 ms
[5] = flecainide at [K+]0 4 mM, CL 500 ms
[6] = after cardioversion by flecainide and elevated [K+]0 (5-8 mM)
[7] = after cardioversion by flecainide at [K+]0 4 mM

## [K+] [[K^+]0]
[1]; no flecainide, [K+]0 from 4 to 8 mM
  AF terminated, % of experiments / atria: 100%
[1]; no flecainide, [K+]0 increased from 4 to 5 mM
  AF termination (atria terminated / tested): did not terminate and 0/5 and did not cardiovert
[1]; no flecainide, [K+]0 increased from 4 to 6 mM
  AF termination (atria terminated / tested): 2/6
[1]; no flecainide, [K+]0 increased from 4 to 8 mM
  AF termination (atria terminated / tested): 4/4
atria; 6 mM [K+]0 vs 4 mM, CL 500 ms
  DTE in atria: not significantly affected
atria; [3]
  APD in atria: abbreviated
  ERP in atria: significantly prolonging
  Post-repolarization refractoriness (PRR): atrial-selective induction
[2]; 6 mM [K+]0 alone, in one of two experiments
  Duration of re-induced AF: 20 min
[2]; 8 mM [K+]0 alone
  AF inducible after termination (atria): 4/4
  Duration of re-induced AF episodes: ≤ 26 s
[2]; two experiments in which 6 mM [K+]0 alone terminated AF
  AF/AT inducibility after termination: readily inducible in both
ventricles; 6 mM [K+]0 vs 4 mM
  DTE in ventricles: not significantly affected
ventricles; [K+]0 from 4 to 6 mM
  APD in ventricles: significantly abbreviated
  ERP in ventricles: significantly abbreviated
ACh-mediated AF
  AF cardioversion (atria cardioverted / tested): 3/4

## O=C(NCC1CCCCN1)c1cc(OCC(F)(F)F)ccc1OCC(F)(F)F (stereo not shown) [flecainide]
[1]; [K+]0 3 mM (simulated hypokalemia)
  AF cardioversion (atria cardioverted / tested): 1/6
[1]; [K+]0 4 mM, ACh 0.5 μM
  AF cardioversion (atria cardioverted / tested): moderately effective
[1]; [K+]0 4 mM, ACh 0.5 μM, listed as Flecainide
  AF cardioversion (atria cardioverted / tested): 3/6
[1]; [K+]0 elevated to 5 mM
  AF cardioversion (atria cardioverted / tested): highly effective
[1]; [K+]0 elevated to 5 mM, listed as Flecainide
  AF cardioversion (atria cardioverted / tested): 5/5
[1]; [K+]0 elevated to 6 mM
  AF cardioversion (atria cardioverted / tested): highly effective
[1]; [K+]0 elevated to 6 mM, listed as Flecainide
  AF cardioversion (atria cardioverted / tested): 5/5
[1]; [K+]0 elevated to 8 mM
  AF cardioversion (atria cardioverted / tested): highly effective
[1]; [K+]0 elevated to 8 mM, listed as Flecainide
  AF cardioversion (atria cardioverted / tested): 4/4
[1]; flecainide, elevation of [K+]0 from 4 to 8 mM vs 4 mM
  Time to conversion (time course of flecainide-mediated AF termination): abbreviated
atria; combined flecainide and elevated [K+]0 (6 mM)
  Depression of excitability, atria vs ventricles: atrial predominant depression of excitability; also recorded: atrial preferential depression of excitability
atria; [4]
  ERP in atria: much more pronounced in the atria
  Post-repolarization refractoriness (PRR): atrial predominant development
atria; flecainide alone at [K+]0 4 mM, CL 500 ms
  DTE: moderate atrial predominant increase
atria; [5]
  APD in atria: no significant change
  ERP in atria: substantial lengthening
atria; flecainide in the presence of 6 mM [K+]0, CL 500 ms
  DTE: large atrial-selective increase
[2]; [6]
  AF/AT inducibility after cardioversion: either not inducible or induced for a very brief episode; also recorded: either not inducible or induced for very brief episodes
  Duration of re-induced AF/AT episodes: < 100 s
[2]; after cardioversion by flecainide and elevated [K+]0 (5-8 mM), in most cases
  Duration of re-induced AF/AT episodes, in most cases: < 10 s
[2]; [7]
  AF or atrial tachycardia inducible after cardioversion (preparations): 3/3
  Duration of re-induced AF/AT episodes: ≤ 300 s
[2]; flecainide at 3 mM [K+]0 (hypokalemia)
  Duration of re-induced AF episodes: ≤ 1860 s
[2]; flecainide at 3 mM [K+]0 (hypokalemia), the only atria terminated
  AF re-induction after termination: readily re-induced
ventricles; flecainide 1.5 μM added at [K+]0 6 mM
  ERP in ventricle: prolongation
ventricles; flecainide at [K+]0 4 mM
  APD in ventricles: no significant change
recent-onset AF
  Patients restored to sinus rhythm: approximately 50%
